Assay results from publication PMC4558462, “A new small molecule inhibitor of soluble guanylate cyclase” (Bioorganic & Medicinal Chemistry, 2015).
“Also recorded” adds a separate entry of the source.

Assays:
full-length enzyme (sGC) = target: T1, full-length enzyme (sGC) (Homo sapiens, UniProt Q02108+Q02153); assay: SPR binding to full-length sGC
T1 construct: Full-length human recombinant guanylyl cyclase (soluble); purchased Enzo lifesciences ALX-201-177
T1 sequence (Q02108 1-690): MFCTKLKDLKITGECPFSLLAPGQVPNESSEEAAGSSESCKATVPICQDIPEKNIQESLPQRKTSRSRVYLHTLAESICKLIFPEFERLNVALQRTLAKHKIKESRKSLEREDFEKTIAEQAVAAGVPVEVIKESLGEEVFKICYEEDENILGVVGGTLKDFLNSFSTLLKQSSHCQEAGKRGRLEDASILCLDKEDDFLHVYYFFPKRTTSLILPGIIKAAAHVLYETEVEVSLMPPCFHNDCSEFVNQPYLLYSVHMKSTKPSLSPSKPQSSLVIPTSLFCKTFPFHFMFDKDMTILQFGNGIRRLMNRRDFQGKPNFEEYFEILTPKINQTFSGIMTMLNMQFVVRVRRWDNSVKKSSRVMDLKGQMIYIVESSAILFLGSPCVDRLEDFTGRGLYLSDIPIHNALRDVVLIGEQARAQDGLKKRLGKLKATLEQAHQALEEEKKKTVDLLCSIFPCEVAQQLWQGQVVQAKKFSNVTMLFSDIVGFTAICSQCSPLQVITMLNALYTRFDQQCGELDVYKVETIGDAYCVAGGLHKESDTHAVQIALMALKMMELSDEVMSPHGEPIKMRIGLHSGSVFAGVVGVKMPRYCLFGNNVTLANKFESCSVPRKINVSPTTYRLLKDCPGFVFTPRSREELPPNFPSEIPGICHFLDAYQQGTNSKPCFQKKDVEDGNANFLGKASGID
T1 sequence (Q02153 1-619): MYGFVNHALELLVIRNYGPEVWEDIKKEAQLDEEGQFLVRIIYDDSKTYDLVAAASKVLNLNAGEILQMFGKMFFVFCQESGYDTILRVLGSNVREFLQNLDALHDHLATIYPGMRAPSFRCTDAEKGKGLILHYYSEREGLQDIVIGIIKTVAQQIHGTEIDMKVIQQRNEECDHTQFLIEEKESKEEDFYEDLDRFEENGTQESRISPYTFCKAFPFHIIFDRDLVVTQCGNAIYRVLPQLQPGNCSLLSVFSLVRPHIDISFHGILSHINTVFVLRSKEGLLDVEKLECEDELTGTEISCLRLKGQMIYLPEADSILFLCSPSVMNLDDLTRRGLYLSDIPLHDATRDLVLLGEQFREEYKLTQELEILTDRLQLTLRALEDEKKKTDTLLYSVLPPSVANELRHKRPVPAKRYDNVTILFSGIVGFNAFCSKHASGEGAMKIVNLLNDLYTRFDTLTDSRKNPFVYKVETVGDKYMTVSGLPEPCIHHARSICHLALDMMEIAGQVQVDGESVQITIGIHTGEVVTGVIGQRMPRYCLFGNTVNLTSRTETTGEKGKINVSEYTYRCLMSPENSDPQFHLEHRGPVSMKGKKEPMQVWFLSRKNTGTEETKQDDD
Experimental: Full-length human recombinant guanylyl cyclase (soluble) and bovine lung guanylyl cyclase (soluble) were obtained from Enzo lifesciences (catalogue numbers ALX-201-177 and ALX-202-039-C005). Biacore consumables were purchased from GE Healthcare (UK), including buffer stock solutions. All other reagents used were obtained from Sigma. Starting materials were either commercially available or synthesized according to methods reported in the literature. ^1H and ^13C NMR spectra were recorded on a Bruker AMX-300 or a Bruker AMX-500 spectrometer. Chemical shifts are reported as ppm relative to TMS internal standard. Mass spectra were recorded on a Fisons VG70-SE spectrometer (EI, FAB) or an Agilent 6100 Series LC-mass spectrometer using C-18 or C-4 columns. Microwave reactions were carried out using a CEM Discover microwave.
Surface plasmon resonance (SPR) experiments were performed with a Biacore T200 instrument at 25 °C. Data processing and analysis were performed using BIAevaluation software and Scrubber2. All sensorgrams were double referenced by subtracting the response in a reference flowcell and a blank sample. Materials and methods used were the same as previously published.[24]

membrane-bound GCs (pGC) = target: T2, membrane-bound GCs (pGC) (Rattus norvegicus, UniProt P18910); assay: Particulate guanylate cyclase assay in purified rat lung membranes; format: biochemical
T2 sequence (P18910 29-1057): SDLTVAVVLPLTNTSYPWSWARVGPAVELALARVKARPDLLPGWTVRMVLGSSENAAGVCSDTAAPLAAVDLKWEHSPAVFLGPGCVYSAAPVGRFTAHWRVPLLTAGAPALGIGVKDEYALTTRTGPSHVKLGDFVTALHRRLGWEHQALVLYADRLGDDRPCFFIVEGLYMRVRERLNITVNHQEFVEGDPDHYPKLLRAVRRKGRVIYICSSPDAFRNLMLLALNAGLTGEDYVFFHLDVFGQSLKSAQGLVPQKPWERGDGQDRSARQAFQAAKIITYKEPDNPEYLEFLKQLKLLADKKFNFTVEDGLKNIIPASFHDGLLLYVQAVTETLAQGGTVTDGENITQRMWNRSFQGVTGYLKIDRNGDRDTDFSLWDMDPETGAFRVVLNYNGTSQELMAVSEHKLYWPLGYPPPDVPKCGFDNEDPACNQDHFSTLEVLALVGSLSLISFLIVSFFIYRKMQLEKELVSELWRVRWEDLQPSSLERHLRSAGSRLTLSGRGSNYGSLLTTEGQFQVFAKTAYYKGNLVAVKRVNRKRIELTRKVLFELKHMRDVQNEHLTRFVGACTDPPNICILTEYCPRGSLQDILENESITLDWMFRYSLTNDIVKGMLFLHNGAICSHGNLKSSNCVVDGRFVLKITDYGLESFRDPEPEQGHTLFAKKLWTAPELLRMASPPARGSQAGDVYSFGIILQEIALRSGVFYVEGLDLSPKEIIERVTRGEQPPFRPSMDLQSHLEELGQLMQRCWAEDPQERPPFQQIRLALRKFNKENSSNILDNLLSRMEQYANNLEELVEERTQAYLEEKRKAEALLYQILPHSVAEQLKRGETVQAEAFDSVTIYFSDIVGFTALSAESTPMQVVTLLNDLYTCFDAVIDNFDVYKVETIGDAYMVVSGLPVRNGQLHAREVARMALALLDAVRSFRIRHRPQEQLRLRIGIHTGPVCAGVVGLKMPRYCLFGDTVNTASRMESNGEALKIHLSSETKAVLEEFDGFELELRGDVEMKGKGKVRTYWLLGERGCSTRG
Experimental: Purified rat lung membranes (20 μg protein/200 μL) were incubated in Tris buffer with 10 mM phosphocreatine, 10 units/mL creatine phosphokinase, and 10 μM ODQ to inhibit NO-activated GC. The reaction took place with 0.3 mM MgCl, 0.5 mM MgATP, and 1 mM MgGTP, at 37 °C. The compound was added and 1 μM ANP used to activate pGC. cGMP formation was allowed to proceed for 10.5–12.5 min and was subsequently measured by radioimmunoassay.

**Q.** Which Kd (full-length enzyme (sGC)) does the source give for `O=[N+]([O-])c1ccc2nc(Nc3ccc(O)cc3)c(Nc3ccc(O)cc3)nc2c1` [Compound 10, 4,4′-((6-Nitroquinoxaline-2,3-diyl)bis(azanediyl))diphenol] here?
**A.** 19.4 ± 2.1 µM

**Q.** What about the Hill slope (membrane-bound GCs (pGC); Basal (listed under ANP group)) of the same compound?
**A.** 2

**Q.** And the IC50 (membrane-bound GCs (pGC); Basal (listed under ANP group))?
**A.** 15 ± 2 µM

**Q.** What about the Hill slope (membrane-bound GCs (pGC); GC activator ANP 10 nM) of the same compound?
**A.** 2

**Q.** What about the IC50 (membrane-bound GCs (pGC); GC activator ANP 10 nM, rat lung membranes, 10 μM ODQ) of the same compound?
**A.** 21 ± 3 µM

**Q.** And the Hill slope (membrane-bound GCs (pGC); GC activator ANP 1 μM)?
**A.** 1

**Q.** And the IC50 (membrane-bound GCs (pGC); GC activator ANP 1 μM, rat lung membranes, 10 μM ODQ)?
**A.** 25 ± 13 µM

**Q.** And the “inhibition of pGC-generated cGMP (in words)” value (membrane-bound GCs (pGC); rat lung membranes, atrial natriuretic peptide stimulation, 10 μM ODQ)?
**A.** showed inhibition; also recorded: Inhibition of particulate GC was also observed
